pIC50: −log10 of the molar value. Where a name gives a salt, the structure may show the parent alone.
These molecules were tested against T1, human clotting factor VIIa (Homo sapiens, UniProt P08709) (assay: Inhibitory activity against clotting factor VIIa (chromogenic substrate Spectrozyme FVIIa, TF/Factor VIIa enzyme solution)). Details: human Factor VIIa 5 nmol/L with human TF 10 nmol/L, room temperature 40 minutes, 405 nm.
T1 construct: a human clotting factor VIIa (hereinafter, “Factor VIIa”) purified sample; purchased Enzyme Research Laboratories HFVIIa
T1 sequence (P08709 213-466 limits assumed): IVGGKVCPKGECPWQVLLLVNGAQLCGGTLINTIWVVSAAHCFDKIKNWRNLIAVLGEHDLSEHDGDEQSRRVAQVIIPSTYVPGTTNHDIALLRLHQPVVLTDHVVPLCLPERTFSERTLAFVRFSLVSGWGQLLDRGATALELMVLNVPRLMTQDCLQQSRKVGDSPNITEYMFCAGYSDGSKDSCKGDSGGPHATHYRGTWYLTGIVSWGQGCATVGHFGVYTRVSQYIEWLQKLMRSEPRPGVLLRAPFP
T1 sequence (P08709 61-212 limits assumed): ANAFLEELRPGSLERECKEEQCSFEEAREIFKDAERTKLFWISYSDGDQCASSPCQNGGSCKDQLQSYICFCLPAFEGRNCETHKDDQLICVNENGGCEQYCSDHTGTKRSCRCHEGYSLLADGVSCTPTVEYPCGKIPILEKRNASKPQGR
T1 sequence (P13726 33-295 partner): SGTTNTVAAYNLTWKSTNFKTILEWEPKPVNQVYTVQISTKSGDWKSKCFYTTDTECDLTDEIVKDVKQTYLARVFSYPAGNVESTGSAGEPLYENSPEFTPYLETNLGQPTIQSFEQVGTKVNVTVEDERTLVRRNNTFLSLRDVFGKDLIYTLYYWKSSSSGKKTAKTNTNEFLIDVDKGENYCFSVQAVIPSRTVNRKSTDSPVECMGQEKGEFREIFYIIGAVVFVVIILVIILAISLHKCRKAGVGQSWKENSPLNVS
Type: biochemical
Description: [Inhibitory Activity Against Clotting Factor VIIa]
Dimethylsulfoxide (DMSO) solutions were prepared with compounds of the invention at concentration of 10 mmol/L (10 mmol/L compound solutions).
One packet of tris-hydroxymethylaminomethane-preset (hereinafter referred to as “Tris preset”) (Product of Sigma Corp., Catalog No. T8293), 8.8 g of sodium chloride (NaCl) and 1 g of bovine serum albumin (hereinafter abbreviated as “BSA”) were dissolved in 1 L of water to prepare a Tris-BSA buffer (100 mmol/L Tris, 0.15 mol/L NaCl, 0.1% BSA, pH 7.4).
This Tris-BSA buffer (180 μL) was added to the aforementioned 10 mmol/L compound solution (20 μL). A 10-fold dilution series was prepared for this mixture using the aforementioned Tris-BSA buffer, and solutions with the compound at concentrations of 1.0 mmol/L, 100, 10, 1, 0.1, 0.01 and 0.001 μmol/L were prepared (1.0 mmol-0.001 μmol/L compound solutions). As a control, a solution was prepared by 10-fold dilution of DMSO with the Tris-BSA buffer (hereinafter referred to as “control 10% solution”).
After dissolving one packet of Tris preset, NaCl (8.8 g) and BSA (1 g) in water (about 900 mL), there were added 1 mol/L aqueous calcium chloride (CaCl2) (15 mL) and 1 mg/mL aqueous cephalin (30 mL), and the total volume was brought to 1 L by adding water. To this solution there was added a human tissue factor (hereinafter, “TF”) sample (product of Calbiochem, Catalog No. 612151) (450 μg) to a TF sample concentration of 10 nmol/L, and then a human clotting factor VIIa (hereinafter, “Factor VIIa”) purified sample (product of Enzyme Research Laboratories, Catalog No. HFVIIa) (250 μg) was added to a Factor VIIa purified sample concentration of 5 nmol/L, to prepare an enzyme solution (100 mmol/L Tris-HCl, 0.15 mol/L NaCl, 15 mmol/L CaCl2, 30 μg/mL cephalin, 1 mg/mL BSA, 10 nmol/L TF, 5 nmol/L Factor VIIa).
To 110 μL of this enzyme solution there was added 15 μL of each of the 1.0 mmol-0.001 μmol/L compound solutions, and then 25 μL of a 1.0 mmol/L synthetic chromogenic substrate solution (Spectrozyme FVIIa, product of American Diagnostica, Catalog No. 217L) was added and the mixture was allowed to stand at room temperature for 40 minutes. Next, the amount of 4-nitroanilide released into the solution was quantitated by spectrophotometry (405 nm).
A control measurement was conducted in the same manner, using the control 10% solution instead of the compound solution.
This measurement yielded the enzyme reaction inhibition in the presence of 100 μmol/L to 0.1 nmol/L of each compound of the invention.
The enzyme reaction inhibition at each compound concentration was subjected to non-linear regression analysis, and the IC50 value for inhibitory activity of each compound against clotting factor VIIa was calculated.

SMILES | pIC50
COc1cc(F)c(C(Nc2ccc(C(=N)N)cc2)c2nn(-c3ccccc3C(=O)O)c(=O)[nH]2)cc1OC (racemic) [Example 1, (R) and (S)-2-{3-[(4-carbamimidoylphenylamino)-(2-fluoro-4,5-dimethoxyphenyl)methyl]-5-oxo-4,5-dihydro-[1,2,4]triazol-1-yl}benzoic acid acetate] | 8.12
COc1cc(OCCF)c(F)c(C(Nc2ccc(C(=N)N)cc2)c2nn(-c3ncccn3)c(=O)[nH]2)c1 (racemic) [Example 3, (R) and (S)-4-({[2-fluoro-3-(2-fluoroethoxy)-5-methoxyphenyl]-(5-oxo-1-pyrimidin-2-yl-4,5-dihydro-1H-[1,2,4]triazol-3-yl)methyl}amino)benzamidine acetate] | 8.32
COc1cc(O[C@H]2CCOC2)cc(C(Nc2ccc(C(=N)N)cc2)c2nn(-c3ncccn3)c(=O)[nH]2)c1 (mixture of isomers) [Example 4, 4-{[(R) and (S)-{3-methoxy-5-[(S)-(tetrahydrofuran-3-yl)oxy]phenyl}-(5-oxo-1-pyrimidin-2-yl-4,5-dihydro-1H-[1,2,4]triazol-3-yl)methyl]amino}benzamidine acetate] | 8.52
COc1cc(O[C@@H]2CCOC2)cc(C(Nc2ccc(C(=N)N)cc2)c2nn(-c3ncccn3)c(=O)[nH]2)c1 (mixture of isomers) [Example 5, 4-[((R) and (S)-{3-methoxy-5-[(R)-(tetrahydrofuran-3-yl)oxy]phenyl}-(5-oxo-1-pyrimidin-2-yl-4,5-dihydro-1H-[1,2,4]triazol-3-yl)methyl)amino]benzamidine acetate] | 8.31
COCCOc1cc(OC)cc(C(Nc2ccc(C(=N)N)cc2)c2nn(-c3ncccn3)c(=O)[nH]2)c1 (racemic) [Example 6, (R) and (S)-4-({[3-methoxy-5-(2-methoxyethoxy)phenyl]-(5-oxo-1-pyrimidin-2-yl-4,5-dihydro-1H-[1,2,4]triazol-3-yl)methyl}amino)benzamidine acetate] | 7.99
COCCOc1cc(OC)cc(C(Nc2ccc(C(=N)N)cc2)c2nn(-c3cccnn3)c(=O)[nH]2)c1 (racemic) [Example 7, (R) and (S)-4-({[3-methoxy-5-(2-methoxyethoxy)phenyl]-(5-oxo-1-pyridazin-3-yl-4,5-dihydro-1H-[1,2,4]triazol-3-yl)methyl}amino)benzamidine acetate] | 8.00
COc1cc(OCCN(C)C)cc(C(Nc2ccc(C(=N)N)cc2)c2nn(-c3ncccn3)c(=O)[nH]2)c1 (racemic) [Example 8, (R) and (S)-4-({[3-(2-dimethylaminoethoxy)-5-methoxyphenyl]-(5-oxo-1-pyrimidin-2-yl-4,5-dihydro-1H-[1,2,4]triazol-3-yl)methyl}amino)benzamidine diacetate] | 7.65
COc1cc(OC)cc(C(Nc2ccc(C(=N)N)cc2)c2nn(-c3ncccn3)c(=O)[nH]2)c1 (racemic) [Example 9, (R) and (S)-4-{[(3,5-dimethoxyphenyl)-(5-oxo-1-pyrimidin-2-yl-4,5-dihydro-1H-[1,2,4]triazol-3-yl)methyl]amino}benzamidine acetate] | 8.01
COCc1cc(OC)cc(C(Nc2ccc(C(=N)N)cc2)c2nn(-c3ncccn3)c(=O)[nH]2)c1 (racemic) [Example 10, (R) and (S)-4-{[(3-methoxy-5-methoxymethylphenyl)-(5-oxo-1-pyrimidin-2-yl-4,5-dihydro-1H-[1,2,4]triazol-3-yl)methyl]amino}benzamidine acetate] | 7.68
COc1cc(CO)cc(C(Nc2ccc(C(=N)N)cc2)c2nn(-c3ncccn3)c(=O)[nH]2)c1 (racemic) [Example 12, (R) and (S)-4-{[(3-hydroxymethyl-5-methoxyphenyl)-(5-oxo-1-pyrimidin-2-yl-4,5-dihydro-1H-[1,2,4]triazol-3-yl)methyl]amino}benzamidine trifluoroacetate] | 7.47
COc1cc(OCC(=O)N(C)C)c(F)c(C(Nc2ccc(C(=N)N)cc2)c2nn(-c3ncccn3)c(=O)[nH]2)c1 (racemic) [Example 15, (R) and (S)-2-{3-[(4-carbamimidoylphenylamino)-(5-oxo-1-pyrimidin-2-yl-4,5-dihydro-1H-[1,2,4]triazol-3-yl)methyl]-2-fluoro-5-methoxyphenoxy}-N,N-dimethylacetamide acetate] | 7.87
COc1cc(C(Nc2ccc(C(=N)N)cc2)c2nn(-c3ncccn3)c(=O)[nH]2)ccc1OCC#N (racemic) [Example 16, (R) and (S)-4-{[(4-cyanomethoxy-3-methoxyphenyl)-(5-oxo-1-pyrimidin-2-yl-4,5-dihydro-1H-[1,2,4]triazol-3-yl)methyl]amino}benzamidine acetate] | 7.94
CCOc1cc(C(Nc2ccc(C(=N)N)cc2)c2nn(-c3ncccn3)c(=O)[nH]2)ccc1OC (racemic) [Example 17, (R) and (S)-4-{[(3-ethoxy-4-methoxyphenyl)-(5-oxo-1-pyrimidin-2-yl-4,5-dihydro-1H-[1,2,4]triazol-3-yl)methyl]amino}benzamidine acetate] | 8.12
CCOc1ccc(C(Nc2ccc(C(=N)N)cc2)c2nn(-c3ncccn3)c(=O)[nH]2)cc1OC (racemic) [Example 18, (R) and (S)-4-{[(4-ethoxy-3-methoxyphenyl)-(5-oxo-1-pyrimidin-2-yl-4,5-dihydro-1H-[1,2,4]triazol-3-yl)methyl]amino}benzamidine acetate] | 7.81
COc1cc(C(Nc2ccc(C(=N)N)cc2)c2nn(-c3ncccc3N)c(=O)[nH]2)cc(C)n1 (racemic) [Example 19, (R) and (S)-4-({[1-(3-aminopyridin-2-yl)-5-oxo-4,5-dihydro-1H-[1,2,4]triazol-3-yl]-(2-methoxy-6-methylpyridin-4-yl)methyl}amino)benzamidine acetate] | 7.89
COc1cc(C(Nc2ccc(C(=N)N)cc2)c2nn(-c3ncccn3)c(=O)[nH]2)cc2c1OCCO2 (racemic) [Example 20, (R) and (S)-4-{[(8-methoxy-2,3-dihydro-benzo[1,4]dioxin-6-yl)-(5-oxo-1-pyrimidin-2-yl-4,5-dihydro-1H-[1,2,4]triazol-3-yl)methyl]amino}benzamidine acetate] | 8.01
COc1cc(C(Nc2ccc(C(=N)N)cc2)c2nn(-c3ncccn3)c(=O)[nH]2)cc2c1OCOC2 (racemic) [Example 21, (R) and (S)-4-{[(8-methoxy-4H-benzo[1,3]dioxin-6-yl)-(5-oxo-1-pyrimidin-2-yl-4,5-dihydro-1H-[1,2,4]triazol-3-yl)methyl]amino}benzamidine acetate] | 7.97
COCc1cc(C(Nc2ccc(C(=N)N)cc2)c2nn(-c3ncccn3)c(=O)[nH]2)cc(OC)c1OC (racemic) [Example 22, (R) and (S)-4-{[(3,4-dimethoxy-5-methoxymethyl-phenyl)-(5-oxo-1-pyrimidin-2-yl-4,5-dihydro-1H-[1,2,4]triazol-3-yl)methyl]amino}benzamidine acetate] | 8.08
COc1cc(C(Nc2ccc(C(=N)N)cc2)c2nn(-c3ncccn3)c(=O)[nH]2)cc2c1OCCC2 (racemic) [Example 24, (R) and (S)-4-{[(8-methoxychroman-6-yl)-(5-oxo-1-pyrimidin-2-yl-4,5-dihydro-1H-[1,2,4]triazol-3-yl)methyl]amino}benzamidine acetate] | 8.13
